Measured values from paper PMC12666486, “Novel dimeric dual-modality FAP-targeted agents with favorable tumor retention for image-guided surgery: a preclinical study” (European Journal of Nuclear Medicine and Molecular Imaging, 2025).

Tests used:
[1] = set-up: method as in manufacturers; settings: unconjugated dyes; ref manufacturers; cited from earlier work
[2] = ref 3 (supplement); cited from earlier work
HT1080hFAP tumor = assay: Static PET/CT imaging of xenografted mice; format: in vivo, BALB/c nude mice; settings: 1.0 nmol, one mouse per compound
Experimental: For the induction of tumor xenografts, 2 × 10^6 of HT1080hFAP or HT1080 cells in 100 μL appropriate medium were subcutaneously injected in the right and left flank of each mouse (athymic female BALB/c nude), respectively. The tumors were allowed to grow until they had reached a volume of 0.3 to 0.8 cm^3. […] To evaluate ex vivo biodistribution on tumor models, 3 mouse xenografts were injected with 0.25 nmol of Gallium-67 labelled tracer (0.4 MBq) and then sacrificed after 1 h, 4 h and 1 day. For the PET/CT imaging study one xenograft-bearing mouse (tumor volume in the range 0.6–1.0 cm^3) was injected with 1.0 nmol of Gallium-68 labelled tracer (5–8 MBq). […] The images were visualized, processed, and quantified in Mediso InterView FUSION (Mediso Medical Imaging Systems, Budapest, Hungary). […] The results were expressed as percentages of injected dose per gram tissue (% ID/g). For the comparative imaging study (SPECT and in vivo fluorescence imaging), one xenograft-bearing mouse (tumor volume in the range 0.2–0.7 cm^3) was injected with 1.5–2 nmol of Gallium-67 tracer (15–17 MBq) and imaged at various time points up to 2 days p.i. […] The images were visualized, processed, and quantified in Mediso InterView FUSION (Mediso Medical Imaging Systems, Budapest, Hungary). […] The fluorescence emission was reported as photons/s/mm^2.

HT1080hFAP cells = assay: Radioactive-based cell efflux study; set-up: species or system human; settings: 2 h post-initial incubation
Experimental: For cell efflux studies, 1.0 × 10^6 HT1080hFAP cells were seeded in 6-well plates and cultivated for 48 h. On the day of the experiment, the cells in each well were washed twice with 1.5 mL of culturing medium and then incubated with the Gallium-68 labelled radiotracer at a final concentration of 1 nM/well for 1 h at 37 °C. The medium containing the unbound radiotracer was then replaced with either fresh medium or a 1 µM FAPI-46 solution in cell medium for blocking condition.
Subsequently, at specific time points, the radioactive medium was removed and collected together with two PBS/0.5% (w/v) BSA washes before adding 1 mL of fresh medium or FAPI-46 blocking solution. Finally, 2 h after the end of the first incubation, the cells were lyzed with 1 mL of 1 M NaOH. All collected fractions were measured in the γ-counter and the percentage of cell-associated activity at different time points relative to the total, corresponding to 1 h after incubation, was reported. The number of experimental replicates performed for each assay is specified in the respective figure legends.

SMILES	Stokes shift [1]	λEm (nm) [1]	λEx (nm) [1]	further results
CC1(C)C(=CC=C2CCCC(C=CC3=[N+](CCC[N+](C)(C)C)c4ccc(S(=O)(=O)O)cc4C3(C)C)=C2Oc2ccc(CCC(=O)O)cc2)N(CCC[N+](C)(C)C)c2ccc(S(=O)(=O)O)cc21 [ZW800]	18	786 nm	768 nm	–
CC(=O)NC1CCCN(O)C(=O)/C=C(/C)CCOC(=O)C(NC(C)=O)CCCN(O)C(=O)/C=C(/C)CCOC(=O)C(NC(C)=O)CCCN(O)C(=O)/C=C(/C)CCOC1=O (centres unmarked) [TAFC]	–	–	–	LogDpH7.4 [2]: -2.08 ± 0.02
CN(CCCN1CCN(C(=O)CN2CCN(CC(=O)[O-])CCN(CC(=O)[O-])CCN(CC(=O)[O-])CC2)CC1)c1ccc2nccc(C(=O)NCC(=O)N3CC(F)(F)C[C@H]3C#N)c2c1.[68Ga+3] [[^68Ga]Ga-FAPI-46]	–	–	–	%ID/g in FAP(+)T (PET/CT, manually drawn ROI) (HT1080hFAP tumor; 1h p.i.): 3.4 %ID/g; %ID/g in FAP(+)T (PET/CT, manually drawn ROI) (HT1080hFAP tumor; 2h p.i.): 3.1 %ID/g; Retained activity, % of the internalized fraction (HT1080hFAP cells; blocking with 1 µM FAPI-46, 1 nM): 9.4 ± 1.5%; Retained activity, % of the internalized fraction (HT1080hFAP cells; without blocking, 1 nM): 21.9 ± 1.4%
CC1(C)C(=CC=C2CCCC(C=CC3=[N+](CCCCCC(=O)[O-])c4ccc(S(=O)(=O)[O-])cc4C3(C)C)=C2Oc2ccc(S(=O)(=O)[O-])cc2)N(CCCCS(=O)(=O)[O-])c2ccc(S(=O)(=O)[O-])cc21.[Na+].[Na+].[Na+].[Na+] [IRDye-800CW]	17	792 nm	775 nm	–
